Assays:
Assay type in all cases: in vivo
GBM F98 cells [1] = assay: Paclitaxel plus alternating electric fields in rat GBM, Ki67/DAPI cell proliferation; details: 25 mg/kg PTX i.p. after 72 hours 100 kHz fields; day 13; vs alternating electric fields only
Description: (§1) Another set of in vivo experiments was performed to determine whether paclitaxel (PTX, which is a drug that ordinarily cannot traverse the BBB) can make it across the BBB when the subject is treated with alternating electric fields. In one of these experiments, glioblastoma was induced in rats by injecting them orthotopically with GBM F98 cells on day 0 of the experiment. On day 6, a first set of MRI scans of each rat's brains was obtained. Alternating electric fields at 100 kHz were applied to all the rats on days 7 through 10. On day 10 (i.e., after applying the fields for 72 hours), some of the rats were injected i.p. with 25 mg/kg PTX, while other rats were not injected. Subsequently, on day 13 (i.e., 3 days post PTX administration), a second set of MRI scans of each rat's brain was obtained. Ki67 (red) and DAPI (blue) staining was evaluated for the test and control rats.

GBM F98 cells [2] = assay: Paclitaxel plus alternating electric fields in rat GBM, fold increase of tumor volume; details: 15 mg/kg PTX with 100 kHz fields, day 15, vs heat only
Description: as §1
A similar experiment using a 15 mg/kg dose of PTX was performed, except that instead of quantifying the Ki67/DAPI ratio on day 13, MRI scans and post mortem tissue sections were used to determine the fold increase of the tumor volume on day 15. The tumor volumes from these experiments are depicted in FIG. 11. […] And the inventors have concluded that the alternating electric fields allow the PTX (or metabolites thereof) to cross the BBB.

rat brain (BBB) [3] = assay: DCE-MRI of Gadolinium contrast agent accumulation in rat brain; details: for contrast agent accumulation in the brain tissue, injection 96 h after the fields were turned off: 72 hours fields followed by 96 hours without fields vs control+96 h
Description: Yet another set of in vivo experiments was performed using Dynamic Contrast Enhanced MRI (DCE-MRI) with intravenous injection of Gadolinium contrast agent (Gd-DTPA, Magnetol, MW 547). In these experiments, test rats were treated with 100 kHz alternating electric fields for 72 h, and control rats were not treated with alternating electric fields for the same period of time. After this 72 h period, the alternating electric field was turned off, the rats were anesthetized, and a series of 60 T1w MRI scans (each of the scans having a duration of 28 seconds) was acquired. The gadolinium contrast agent was injected into the rat's tail vein during the 7th of these 60 scans.
The image analysis for each rat included (1) determining a baseline for each voxel by calculating the mean of the first six T1w MM scans for each voxel (i.e., the scans prior to the injection of the gadolinium); (2) computing voxel by voxel, the percent signal change (i.e., gadolinium accumulation) over time relative to the baseline; (3) segmenting the brain into anterior, middle, and posterior segments; (4) generating for each of the three segments the mean percent signal change with respect to the baseline over all the voxels in the respective segment and then (5) averaging 4 consecutive time points (i.e. 4 scans) together. Finally, the data from all of the rats within any given group were averaged together.
To test whether this increase in permeability of the BBB was temporary, the same test conditions were repeated, but followed with an additional 96 hours without alternating electric fields. After this 96 hour period, a series of 60 T1w MRI scans (each of the scans having a duration of 28 seconds) was acquired using the same procedure described above (including the gadolinium injection). The results of this portion of the DCE-MRI experiment for each of the three segments of the brain are also depicted in FIG. 8. […] From this we can conclude that the permeability of the BBB returns to normal after the alternating electric fields are discontinued.
The relationship between the intensity of the alternating electric fields and the impact of those fields on BBB integrity and permeability was also apparent from in vivo experiments in rats using serial dynamic contrast-enhanced (DCE) MM to measure gadolinium (Gd) uptake after 100 kHz alternating electric fields were applied for 72 hours. The rat's brains were segmented into three regions (anterior, posterior, and middle), and simulations of the alternating electric fields delivery to those three regions yielded field strengths of 1.5±0.6 V/cm RMS, 2.1±1.2 V/cm RMS, and 2.7±1.7 V/cm RMS respectively. […] These findings also indicate that the cells' response to alternating electric fields depends on the intensity of the fields.

rat brain (BBB) [4] = assay: Evans Blue (EB) accumulation in rat brain after alternating electric fields
Description: A set of in vivo experiments on rats was also run to quantify the increase in vessel permeability caused by exposure to the alternating electric fields. These experiments used Evans Blue (EB) dye, which is an azo dye that has a very high affinity for serum albumin (molecule size ˜69 kDa). Because of its large molecule size, serum albumin will ordinarily not be able to get past the BBB.
This was accomplished by shaving each rat's head, positioning a first pair of capacitively coupled electrodes on the top and bottom of the rat's head, and positioning a second pair of capacitively coupled electrodes on the left and right sides of the rat's head. A 100 kHz AC voltage was then applied between the top and bottom electrodes for 1 second, followed by a 100 kHz AC voltage applied between the right and left electrodes for 1 second, in a repeating sequence.
Under the conditions indicated in Table 1 and for the times indicated on Table 1, EB was injected intravenously into the tail vein under anesthesia (Once injected, EB immediately binds to Albumin), and the EB was allowed to circulate for 2 hours in all cases. The following steps were then performed: (a) intracardiac perfusion with saline; (b) brains are sliced in four pieces with a brain slicer; (c) pieces were photographed to localize staining and weighted; (d) EB extraction after tissue homogenization with TCA 50% (1:3) and centrifuge and (e) EB quantification at 610 nm. Results are given as μg EB per g tissue.
During the experiment, two animals from group 2 and one animal from group 4 were excluded (disrupted treatment, failure to inject EB into the tail vein). There were no differences between the animals treated with alternating electric fields (groups 1 and 2) and therefore these animals were grouped together. Similarly, there were no differences between sham heat and control animals (groups 3 and 4) and therefore these animals were grouped together.
EB accumulation in these four specific sections was then measured. In addition, a computer simulation was performed to determine the field strength in each of these four sections. […]

## CC(=O)O[C@H]1C(=O)[C@@]2(C)[C@H]([C@H](OC(=O)c3ccccc3)[C@]3(O)C[C@H](OC(=O)[C@H](O)[C@@H](NC(=O)c4ccccc4)c4ccccc4)C(C)=C1C3(C)C)[C@]1(OC(C)=O)CO[C@@H]1C[C@@H]2O [PTX, paclitaxel]
GBM F98 cells [1]
  cell proliferation in the GBM tumor (Ki67/DAPI ratio): significant decrease in cell proliferation
GBM F98 cells [2]
  fold tumor volume increase in the GBM tumor: significant decrease in the fold tumor volume increase

## O=C([O-])CN(CCN(CC(=O)[O-])CC(=O)O)CCN(CC(=O)[O-])CC(=O)O.[Gd+3] [Gd-DTPA]
Rat brain (BBB) [3]; 100 kHz fields 72 hours, about 10 minutes after Gd injection, vs control rats
  Gd signal enhancement in the middle and posterior brain: significantly increased signal enhancement
Rat brain (BBB) [3]; 100 kHz fields 72 hours, lower field intensities in this region
  Gd accumulation in the anterior part of the brain: no significant Gd accumulation
Rat brain (BBB) [3]; 100 kHz fields 72 h vs control rats, anterior, middle, posterior segments
  contrast agent accumulation in the brain tissue (DCE-MRI percent signal change): significantly higher than in the control rats
Rat brain (BBB) [3]; listed as Gd
  contrast agent accumulation in the brain tissue, injection 96 h after the fields were turned off: no significant accumulation of Gd
Rat brain (BBB) [3]; listed as contrast agent
  contrast agent accumulation in the brain tissue, injection 96 h after the fields were turned off: not significantly different from the control rats
Rat brain (BBB) [3]; rats not treated using alternating electric fields
  Gd accumulation in control rats: No significant Gd accumulation
Rat brain (BBB) [3]; test rats (100 kHz fields 72 h), 20 to 23 minutes post-contrast administration
  spatial distribution of Gd enhancement: distributed in the whole brain

## Cc1cc(-c2ccc(/N=N/c3ccc4c(S(=O)(=O)O)cc(S(=O)(=O)O)c(N)c4c3O)c(C)c2)ccc1/N=N/c1ccc2c(S(=O)(=O)O)cc(S(=O)(=O)O)c(N)c2c1O [EB, Evans Blue]
Rat brain (BBB) [4]; 100 kHz fields 72 hours vs sham heat/control, p<0.05
  average EB accumulation in the rat brain, averaged over all four sections 1-4: higher accumulation of EB
Rat brain (BBB) [4]; 100 kHz fields 72 h vs sham heat/control, EB i.v., circulating 2 hours, field strength highest
  EB accumulation, brain sections 1, 2 (frontal cerebrum): statistically significant increase
Rat brain (BBB) [4]; 100 kHz fields 72 h vs sham heat/control, EB i.v., circulating 2 hours, field strength lower
  EB accumulation, posterior brain sections (3, 4): smaller increase (that was not statistically significant)
